From PubChem BioAssay (NCI) come the findings set out here.

Among the test systems are A549 NSCLC; SNB-75 CNS; LXFL 529 NSCLC; XF 498 CNS; MALME-3M melanoma; M14 melanoma; DMS 114 small cell lung; HT29 colon; SNB-78 CNS; RPMI-8226 leukemia; EKVX NSCLC; DMS 273 small cell lung; KM20L2 colon; UACC-62 melanoma; DLD-1 colon; M19-MEL melanoma; HOP-18 NSCLC; NCI/ADR-RES ovarian.
Assay in all cases: DTP human tumour cell line panel, 48 h

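Protocol summary: plate cells (96-well), add compound at 5 concentrations, incubate 48 h, interpolate endpoints linearly. The concentration for full growth arrest is given as TGI.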

For orientation: TGI means the concentration at which net growth stops. Low values mean greater sensitivity of the cells, high ones lower sensitivity of the cells. Take `COc1ccccc1OCc1nnc(SCC(=O)O)n1-c1ccccc1`: the TGI in the assay with A549 NSCLC, in the assay on SNB-75 CNS, in the assay on LXFL 529 NSCLC, in the assay with XF 498 CNS, in the assay with MALME-3M melanoma and with M14 melanoma was > 100 µM each time. Moreover, the TGI in the assay on DMS 114 small cell lung, in the assay with HT29 colon, with SNB-78 CNS, in the assay with RPMI-8226 leukemia, with EKVX NSCLC and in the assay with DMS 273 small cell lung was > 100 µM throughout. Also, the TGI in the assay with KM20L2 colon, in the assay on UACC-62 melanoma and in the assay with DLD-1 colon was > 100 µM each time.

Take `CCOP(=O)(C/C(=N/NC(C)(C)C)C(=O)Nc1nc2ccc(C)cc2s1)OCC`: the TGI in the assay with A549 NSCLC, in the assay on SNB-75 CNS, with M19-MEL melanoma, with LXFL 529 NSCLC, with XF 498 CNS and in the assay with MALME-3M melanoma was > 100 µM throughout. Also, the TGI with M14 melanoma, in the assay on DMS 114 small cell lung, in the assay with HT29 colon, in the assay on SNB-78 CNS, with EKVX NSCLC and in the assay on DMS 273 small cell lung was > 100 µM throughout. Further, the TGI with KM20L2 colon, in the assay on UACC-62 melanoma and with HOP-18 NSCLC was > 100 µM each time.

Consider `COC(=O)C(=O)C(C(=O)C(=O)Nc1ccc([N+](=O)[O-])cc1C#N)c1nc2ccc([N+](=O)[O-])cc2[nH]c1=O` (centres undefined), for which the TGI in the assay on A549 NSCLC, with SNB-75 CNS, with M19-MEL melanoma, in the assay on LXFL 529 NSCLC, with MALME-3M melanoma and with M14 melanoma was > 100 µM each time. The TGI in the assay with DMS 114 small cell lung, with HT29 colon, in the assay on SNB-78 CNS, with RPMI-8226 leukemia, with EKVX NSCLC and in the assay on DMS 273 small cell lung was > 100 µM in each case. The TGI in the assay on KM20L2 colon, in the assay on UACC-62 melanoma, with DLD-1 colon and in the assay with HOP-18 NSCLC was > 100 µM in each case.

With `CCN(CC)CCNC(=O)c1ccccc1Nc1c(Cl)cccc1Cl`, the TGI in the assay on A549 NSCLC was 32.6 µM; in the assay on SNB-75 CNS, 23.8 µM; in the assay with M19-MEL melanoma, 30.2 µM; in the assay on LXFL 529 NSCLC it was 30.5 µM; in the assay with XF 498 CNS it was 16.5 µM; in the assay with M14 melanoma, 34.5 µM. Further, the TGI in the assay with DMS 114 small cell lung was found to be 24.8 µM; in the assay on HT29 colon, 19 µM; in the assay with SNB-78 CNS it was 33.1 µM; with RPMI-8226 leukemia it was 30.2 µM; with EKVX NSCLC it was 26.6 µM; in the assay on DMS 273 small cell lung, 30.6 µM. The TGI with KM20L2 colon amounted to 7.27 µM; with UACC-62 melanoma, 32.1 µM; with DLD-1 colon it was 24.7 µM.

For `COc1cc2c(cc1OC)[C@]1(O)C(=O)c3ccc4c(c3O[C@@H]1CO2)C[C@H](C(C)(C)O)O4`, the TGI in the assay with A549 NSCLC, in the assay on SNB-75 CNS, in the assay on M19-MEL melanoma, with LXFL 529 NSCLC, in the assay on XF 498 CNS and in the assay with MALME-3M melanoma was > 100 µM in each case. Also, the TGI with M14 melanoma, with DMS 114 small cell lung, in the assay on HT29 colon, with SNB-78 CNS, in the assay with RPMI-8226 leukemia and with EKVX NSCLC was > 100 µM each time. Moreover, the TGI in the assay with DMS 273 small cell lung, with KM20L2 colon, in the assay on UACC-62 melanoma and with DLD-1 colon was > 100 µM throughout.

On to `CCC(=O)NCC1(c2c[nH]c3ccccc23)SCCS1`, for which the TGI with A549 NSCLC, with SNB-75 CNS, in the assay with M19-MEL melanoma, in the assay with LXFL 529 NSCLC, in the assay with XF 498 CNS and in the assay on MALME-3M melanoma was > 100 µM each time. The TGI in the assay on M14 melanoma, in the assay with DMS 114 small cell lung, in the assay with HT29 colon, in the assay with SNB-78 CNS, with RPMI-8226 leukemia and in the assay on EKVX NSCLC was > 100 µM each time. The TGI with DMS 273 small cell lung, with KM20L2 colon, in the assay on UACC-62 melanoma, in the assay with DLD-1 colon and with HOP-18 NSCLC was > 100 µM in each case.

Consider `O=c1[nH]nc2c3n[nH]c(=O)n3c3ccccc3n12`, for which the TGI in the assay on A549 NSCLC, in the assay with SNB-75 CNS, in the assay with M19-MEL melanoma, in the assay on LXFL 529 NSCLC, in the assay on XF 498 CNS and with MALME-3M melanoma was > 100 µM each time. For the same compound, the TGI with M14 melanoma, in the assay on DMS 114 small cell lung, with HT29 colon, in the assay with SNB-78 CNS, with RPMI-8226 leukemia and in the assay with EKVX NSCLC was > 100 µM throughout. The TGI with DMS 273 small cell lung, with KM20L2 colon, with UACC-62 melanoma and with DLD-1 colon was > 100 µM throughout.

Take `CC(=O)C1CC2(c3ccccc3)C(=O)c3ccccc3N2O1` (centres undefined): the TGI in the assay on A549 NSCLC, in the assay with SNB-75 CNS, with M19-MEL melanoma, in the assay on LXFL 529 NSCLC, with XF 498 CNS and in the assay with MALME-3M melanoma was > 100 µM each time. The TGI in the assay on M14 melanoma, with DMS 114 small cell lung, with HT29 colon, with SNB-78 CNS, with RPMI-8226 leukemia and with EKVX NSCLC was > 100 µM in each case. Besides, the TGI with DMS 273 small cell lung, in the assay on KM20L2 colon, with UACC-62 melanoma, in the assay with DLD-1 colon and in the assay on HOP-18 NSCLC was > 100 µM in each case.

Take `C/C(CC(=O)Nc1ccc(C)cc1)=N\NC(N)=S`: the TGI with A549 NSCLC, with SNB-75 CNS, in the assay on M19-MEL melanoma, in the assay with LXFL 529 NSCLC, in the assay on XF 498 CNS and in the assay on MALME-3M melanoma was > 100 µM in each case. In addition, the TGI with M14 melanoma, in the assay with DMS 114 small cell lung, with HT29 colon, with SNB-78 CNS, in the assay on RPMI-8226 leukemia and in the assay with EKVX NSCLC was > 100 µM throughout. For the same compound, the TGI with KM20L2 colon, with UACC-62 melanoma and with DLD-1 colon was > 100 µM each time.

Turning to `CC1=CC(=O)c2cccc(O)c2C1=O`, the TGI with A549 NSCLC was 34.7 µM; in the assay with SNB-75 CNS it was 18 µM; with M19-MEL melanoma, 4.05 µM; in the assay on LXFL 529 NSCLC, 3.06 µM; with XF 498 CNS it was 3.2 µM; in the assay on MALME-3M melanoma it was 2.98 µM. For the same compound, the TGI in the assay with M14 melanoma was 3.25 µM; in the assay on DMS 114 small cell lung, 7.89 µM; in the assay with HT29 colon, 10.4 µM; in the assay with SNB-78 CNS it was > 62.4 µM; in the assay with RPMI-8226 leukemia, > 40.3 µM; with EKVX NSCLC, 8.68 µM. Besides, the TGI was found to be 5.01 µM with DMS 273 small cell lung, 41.6 µM in the assay with KM20L2 colon, 3.68 µM in the assay on UACC-62 melanoma and 3.07 µM in the assay with HOP-18 NSCLC.

For `CN1C(=O)c2cccc3c([N+](=O)[O-])ccc(c23)C1=O`, the TGI in the assay on A549 NSCLC amounted to 26.8 µM; in the assay on SNB-75 CNS, 25.1 µM; with M19-MEL melanoma, 24.5 µM; in the assay on LXFL 529 NSCLC, 3.89 µM; in the assay on MALME-3M melanoma, 31.1 µM; in the assay with M14 melanoma, 23.1 µM. Moreover, the total growth inhibition concentration (TGI) was found to be 11.2 µM with DMS 114 small cell lung; 32 µM with SNB-78 CNS; 29.4 µM in the assay with EKVX NSCLC; 15.7 µM with DMS 273 small cell lung; 19.5 µM in the assay with KM20L2 colon; 4.03 µM with UACC-62 melanoma. Moreover, the TGI in the assay on DLD-1 colon stood at 12.1 µM; in the assay with HOP-18 NSCLC, 30.8 µM.

For the compound `CSc1ccc2c(cc1=O)C(NC(=O)c1cc(O)c(OC(=O)O)c(O)c1)CCc1cc(O)c(O)c(O)c1-2` (centres undefined), the TGI was 52 µM in the assay on A549 NSCLC; > 90 µM in the assay with SNB-75 CNS; 27.4 µM in the assay on M19-MEL melanoma; 36.9 µM with LXFL 529 NSCLC; > 90 µM in the assay with MALME-3M melanoma; 30.5 µM with M14 melanoma. Moreover, the TGI in the assay on DMS 114 small cell lung was 36 µM; in the assay on HT29 colon, 40.2 µM; in the assay with SNB-78 CNS it was 81.6 µM; with RPMI-8226 leukemia, 39.8 µM; in the assay with EKVX NSCLC, 38.8 µM; in the assay on DMS 273 small cell lung, 38.6 µM. Moreover, the TGI in the assay with KM20L2 colon was 83.2 µM; in the assay on UACC-62 melanoma, 30.6 µM; with DLD-1 colon, 43.9 µM; in the assay on HOP-18 NSCLC, > 90 µM.

On to `c1ccc(SCCP(CCP(c2ccccc2)c2ccccc2)c2ccccc2)cc1` (centres undefined), for which the TGI in the assay with A549 NSCLC was > 100 µM; with SNB-75 CNS, > 19.6 µM; in the assay on M19-MEL melanoma it was > 100 µM; in the assay on LXFL 529 NSCLC, 23.3 µM; in the assay on XF 498 CNS, 8.15 µM; in the assay with MALME-3M melanoma, > 59.1 µM. The TGI was 43.5 µM in the assay on M14 melanoma; > 100 µM in the assay with NCI/ADR-RES ovarian; 33.2 µM with DMS 114 small cell lung; > 100 µM in the assay on HT29 colon; > 100 µM in the assay with SNB-78 CNS; > 66.3 µM in the assay on RPMI-8226 leukemia. Further, the TGI in the assay with EKVX NSCLC was > 67.5 µM; in the assay with DMS 273 small cell lung, 13.6 µM; in the assay with DLD-1 colon it was > 100 µM; in the assay with HOP-18 NSCLC it was 14 µM.

For the compound `O=C1c2ccccc2N2OC3C4CCC(C4)C3C12c1ccccc1` (centres undefined), the TGI in the assay on A549 NSCLC, with SNB-75 CNS, with M19-MEL melanoma, with LXFL 529 NSCLC, with MALME-3M melanoma and in the assay on M14 melanoma was > 100 µM each time. The TGI in the assay on DMS 114 small cell lung, in the assay on HT29 colon, in the assay with RPMI-8226 leukemia, in the assay on EKVX NSCLC, in the assay with DMS 273 small cell lung and with KM20L2 colon was > 100 µM throughout. Further, the TGI in the assay on UACC-62 melanoma, in the assay on DLD-1 colon and in the assay with HOP-18 NSCLC was > 100 µM in each case.
